Results from PubChem BioAssay AID1963853 (Molecular Pharmacology Branch, DTP, NCI, 2024).
“And” between values parts separate entries of the source, which are not always exact repeats. Equal entries are not always repeated.

System: 266295-075-R-J1-PDC spheroid viability
Experiment: Anticancer human tumor 266295-075-R-J1-PDC patient-derived head and neck squamous carcinoma cell line growth inhibition [POLQ]
Conditions: spheroids with HUVEC and MSC; for viability, T/C: stronger effect = lower value
Procedure: Multicellular complex tumor spheroid response to Polymerase (POL) inhibitors (novobiocin, ART-558, RP6685) in combination with a variety of drugs and investigational agents in selected tumor cell lines
The POL inhibitors (novobiocin, ART-558, and RP6685) were evaluated both individually and in combination with standard of care and investigational anticancer small molecules within a complex spheroid model of solid tumors. . Complex spheroids include a stromal component modeled by human endothelial cells (HUVEC) and fibroblasts modeled by human mesenchymal stem cells (MSCs). The concentration ranges selected for each drug and investigational agent were based upon clinically achievable concentrations if the clinical Cmax of the agent was known.
Compounds. The drugs and investigational agents: novobiocin (NSC847541), ART-558 (NSC835418), RP-6685 (NSC848927), peposertib (NSC802822), ceralasertib (NSC780249), elimusertib (NSC800525), camonsertib (NSC841442), AZD-1390 (NSC803789), olaparib (NSC753686), talazoparib (NSC767125), rucaparib (NSC756644), sotorasib (NSC818433), MRTX-1133 (NSC836407), SN-38 (NSC673596), topotecan (NSC609699), epotoside (NSC141540), doxorubicin (NSC123127), gemcitabine (NSC613327), 5-fluorouracil (NSC19893), paclitaxel (NSC125973), vemurafenib (NSC761431), MSA-2 (NSC828583), SN-011 (NSC837082), adavosertib (NSC754352), prexasertib (NSC758257), carboplatin (NSC241240) and oxaliplatin (NSC266046), were obtained from the National Cancer Institute (NCI) Developmental Therapeutics Program Chemical Repository (21). The FDA-approved anticancer drug set is available from the Developmental Therapeutics Program at https://dtp.cancer.gov/organization/dscb/obtaining/. […] The stock solutions were prepared in dimethyl sulfoxide (DMSO, Sigma-Aldrich, St. Louis, MO, cat. D2650), except for the platinum compounds which were prepared in saline (Quality Biological, Gaithersburg, MD, cat. 114-055-101), at 800-fold the tested concentration and stored at -70 degrees C prior to their use. All drugs and investigational agents were tested over a range starting from a high concentration at or near the clinical Cmax and decreasing in half-log increments. If the clinical Cmax for an agent had not been determined, the highest concentration tested was 10 microM, except for SN-38, which was tested at a high concentration of 1 microM.
Cell Culture. All cells were maintained in an incubator at 37 degrees C and 5% CO2 with 95% humidity. The PDC lines were cultured according to standard operating procedures established by the NCI PDMR (https://pdmr.cancer.gov). Table 3 of the manuscript, lists the cell lines along with the number of the three cell types plated to form the mct-spheroids and media for tumor cell growth. After thawing, all PDC lines, except 997537-175-T-J1-PDC and 415267-285-R-J2-PDC, were cultured in Matrigel-coated flasks prepared with a working solution of 1X Ham's F-12 nutrient mix, without supplementation (Thermo Fisher Scientific, cat. 11765054), 100 U/mL penicillin-streptomycin (Thermo Fisher Scientific, cat. 15140122), and 2.5% Matrigel (Corning Inc., Corning, NY, cat. 354248) for the first three passages. The two PDC lines 997537-175-T-J1-PDC and 415267-285-R-J2-PDC were cultured on uncoated flasks. The 857933-349-R-J2-PDC line was cultured in 6C/Colon 1B media containing advanced DMEM/F-12 (Thermo Fisher Scientific, cat. 12634028), 10 mM HEPES (Thermo Fisher Scientific, cat. 15630080), 1X GlutaMAX supplement (Thermo Fisher Scientific, cat. 35050061), 0.1 mg/mL primocin (InvivoGen, San Diego, CA, cat. ant-pm-2), 10% defined fetal bovine serum, heat inactivated (HyClone Laboratories Inc., Logan, UT, cat. SH30070.03HI), 50% L-WRN conditioned media (ATCC, cat. CRL-3276), 1.25 mM N-Acetyl-L-cysteine (Sigma-Aldrich, cat. A9165), 10 mM nicotinamide (Sigma-Aldrich, cat. N0636), 1X B-27 supplement (Thermo Fisher Scientific, cat. 17504044), 1X N-2 supplement (Thermo Fisher Scientific, cat. […]
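Note: spheroids exposed to compounds for seven days before readout.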

COc1cccc(OCCCN)c1-c1cc(Nc2cnc(C#N)cn2)n[nH]1 + COC1C(OC(N)=O)C(O)C(Oc2ccc3c(O)c(NC(=O)c4ccc(O)c(CC=C(C)C)c4)c(=O)oc3c2C)OC1(C)C
IC50 (curve of first compound, second compound 0.0316 µM): > 1000 nM
IC50 (curve of first compound, second compound 0.1 µM): > 1000 nM
IC50 (curve of first compound, second compound 0.316 µM): > 1000 nM
IC50 (curve of first compound, second compound 1 µM): > 1000 nM
IC50 (curve of first compound, second compound 3.16 µM): > 1000 nM
IC50 (curve of first compound, second compound 10 µM): > 1000 nM
viability, T/C (second compound 0.0316 µM, first compound 0.00316 µM): 87.7%
viability, T/C (second compound 0.0316 µM, first compound 0.01 µM): 81.7%
viability, T/C (second compound 0.0316 µM, first compound 0.0316 µM): 71.1%
viability, T/C (second compound 0.0316 µM, first compound 0.1 µM): 64.2%
viability, T/C (second compound 0.0316 µM, first compound 0.316 µM): 67.1%
viability, T/C (second compound 0.0316 µM, first compound 1 µM): 71.7%
viability, T/C (second compound 0.1 µM, first compound 0.00316 µM): 109%
viability, T/C (second compound 0.1 µM, first compound 0.01 µM): 89.8%
viability, T/C (second compound 0.1 µM, first compound 0.0316 µM): 84%
viability, T/C (second compound 0.1 µM, first compound 0.1 µM): 68.7%
viability, T/C (second compound 0.1 µM, first compound 0.316 µM): 65.6%
viability, T/C (second compound 0.1 µM, first compound 1 µM): 75.6%
viability, T/C (second compound 0.316 µM, first compound 0.00316 µM): 88.8%
viability, T/C (second compound 0.316 µM, first compound 0.01 µM): 85.4%
viability, T/C (second compound 0.316 µM, first compound 0.0316 µM): 78.6%
viability, T/C (second compound 0.316 µM, first compound 0.1 µM): 70.6%
viability, T/C (second compound 0.316 µM, first compound 0.316 µM): 81.1%
viability, T/C (second compound 0.316 µM, first compound 1 µM): 70%
viability, T/C (second compound 1 µM, first compound 0.00316 µM): 96.7%
viability, T/C (second compound 1 µM, first compound 0.01 µM): 89.8%
viability, T/C (second compound 1 µM, first compound 0.0316 µM): 76.4%
viability, T/C (second compound 1 µM, first compound 0.1 µM): 66.1%
viability, T/C (second compound 1 µM, first compound 0.316 µM): 72%
viability, T/C (second compound 1 µM, first compound 1 µM): 69.1%
viability, T/C (second compound 3.16 µM, first compound 0.00316 µM): 92.3%
viability, T/C (second compound 3.16 µM, first compound 0.01 µM): 96.7%
viability, T/C (second compound 3.16 µM, first compound 0.0316 µM): 78.6%
viability, T/C (second compound 3.16 µM, first compound 0.1 µM): 74.3%
viability, T/C (second compound 3.16 µM, first compound 0.316 µM): 78.3%
viability, T/C (second compound 3.16 µM, first compound 1 µM): 76.1%
viability, T/C (second compound 10 µM, first compound 0.00316 µM): 87.6%
viability, T/C (second compound 10 µM, first compound 0.01 µM): 90.9%
viability, T/C (second compound 10 µM, first compound 0.0316 µM): 70.4%
viability, T/C (second compound 10 µM, first compound 0.1 µM): 65.1%
viability, T/C (second compound 10 µM, first compound 0.316 µM): 66.5%
viability, T/C (second compound 10 µM, first compound 1 µM): 69.6%

CC1COCCN1c1cc(-c2ccnn2C)c2ccnc(-c3ccn[nH]3)c2n1 (centres undefined)
viability, T/C (compound 0.0316 µM): 91% and 92.4% and 98.3%
viability, T/C (compound 0.1 µM): 70.7% and 81.1% and 80.7%
viability, T/C (compound 0.316 µM): 62.5% and 67.2% and 69.4%
viability, T/C (compound 1 µM): 45.2% and 52.3% and 59.2%
viability, T/C (compound 3.16 µM): 47.1% and 49% and 53.5%
viability, T/C (compound 10 µM): 36.6% and 36.9% and 32%
IC50 (curve of compound): 965 nM and 1850 nM and 2430 nM
